Read-outs that look alike come from different tables or passages of the source. Square brackets hold non-standard residues; d marks the D form. Peptide text beside a SMILES is read from it. ξ: configuration not given here. Dmt = Cc1cc(O)cc(C)c1C[C@H](N)C(=O)O; ξGly(octyl) = CCCCCCCCC(N)C(=O)O
What was measured:
[1] = Caco-2 cell homogenate stability assay; assay type: in vitro ADME, human; conditions: for half-life: human, Caco-2, pH 7.4, Caco-2 cell homogenate, mean ± SEM, read-out: t 1/2 (min, Caco-2)
Experimental: A suspension of 5×10^4 Caco-2 cells in 100 µL culture medium was added to the wells of a 96-well cell culture plate. Culture medium supplemented with 1% penicillin/streptomycin (100 U/mL) was changed every second day.
After 21–28 days, the cells were washed with 0.2% EDTA (2×100 µL) and Hank's Balanced Salt Solution containing 25 mM 4-(2-hydroxyethyl)-1-piperazineethanesulfonic acid (HBSS-Hepes, pH 7.4; 3×100 µL). HBSS–Hepes buffer was added to each well (100 µL), and the cells were disrupted by two one-second pulses with a Sonics Vibracell ultrasonic processor set at 60% amplitude at 130 W. The cell debris was removed by centrifugation (2000 rpm, 5 minutes) and the protein content of three wells was determined using the Bio-Rad protein assay kit, by comparison with a standard curve generated from known concentrations of bovine serum albumin. The protein content of the cell homogenate was adjusted to 0.6–0.9 mg/mL in a clean 96-well plate.
The peptides were dissolved in HBSS–Hepes buffer containing 1% DMSO (dimethyl sulfoxide), and each peptide solution (200 µM, 100 µL) was added to three wells and the plate was incubated at 37°C in a shaker at 400 rpm. At pre-selected time points (5, 10, 15, 20, 30, 40, 50, 60, and 120 min), samples (10 µL) were collected and enzymatic digestion was stopped by addition of 5 µL TFA. These samples were then diluted with water (75.5 µl) and DMSO (9.5 µL) and analyzed by LC-MS to determine the concentration of peptide remaining in the solution.
LC-MS was carried out on a Luna Phenomenex C18 column (2.0×50 mm, 5 µm) with a gradient of 100% A (0.1% formic acid in water) to 100% B (0.1% formic acid in acetonitrile/water 9∶1) over 5.5 minutes at a flow rate of 0.3 mL/min. The mass spectrometer was set to selective ion monitoring in the positive ion electrospray mode. A standard curve was generated from standards containing known peptide concentrations, and used to determine the peptide concentration in the samples.

[2] = Plasma stability assay; assay type: in vitro ADME; conditions: human plasma, 37°C, mean ± SEM; read-out: t 1/2 (min, Plasma)
Experimental: Fresh human plasma was obtained from healthy and consenting volunteers (ethics approval number: 2006000950). The peptides were dissolved in PBS containing 5% DMSO (1 mg/mL), and 300 µL aliquots were mixed with 300 µL of pre-warmed plasma and incubated at 37°C. At selected time points (5, 10, 20, 30, 40, 60, 90, and 120 min), samples (50 µL) were collected and plasma proteins precipitated by addition of acetonitrile (75 µL). After centrifugation (10,000 rpm, 10 minutes), the peptide content of the supernatant was analyzed by HPLC with a Vydac C18 column (4.6×250 mm, 5 µm) at a flow rate of 1 mL/min and a gradient of 100% A (0.1% TFA in water) to 100% B (0.1% TFA in acetonitrile/water 9∶1) over 30 minutes.

[3] = Caco-2 cell permeability assay; assay type: in vitro ADME, human; conditions: human, Caco-2, pH 7.4, across Caco-2 cell monolayers, mean ± SEM
Experimental: (§1) A suspension of 10^5 Caco-2 cells (100 µL) in culture medium supplemented with 1% penicillin/streptomycin (100 U/mL) was pipetted into polycarbonate cell culture inserts (pore size 0.4 µm, 6.5 mm diameter, Transwell®) in a 24-well plate, and the same medium was also added to the basolateral chamber (0.6 mL). Medium in both chambers was changed every second day.
(§2) After 21–28 days, the integrity of the tight junctions and the monolayers was assessed by measuring the transepithelial electrical resistance (TEER) using the Millicell-ERS epithelial volt-ohmmeter system (Millipore Corporation). Wells that gave TEER values of 1500–4280 (Ωcm^2) were used for the experiment.
(§3) After the initial TEER test, the Caco-2 cell monolayers were washed with HBSS-Hepes buffer (3×) and then incubated with the same buffer at 37°C. After 30 minutes the buffer was removed from the apical chamber and 100 µL aliquots of peptides, dissolved to a concentration of 200 µM in HBSS-Hepes containing 1% DMSO, were added to at least three wells. As a further test of the Caco-2 cell monolayer integrity, radiolabelled [^14C]-D-mannitol (1.80 µCi) in HBSS-Hepes buffer was added to three wells. The plates were incubated in a shaker set to 400 rpm at 37°C, and samples (0.4 mL) were collected from the basolateral chamber at 30, 90, 120 and 150 minutes and replaced with the same volume of buffer. At the end of the experiment, 50 µL were collected from the apical chamber of each well. LC-MS quantification of the peptides was performed as described in Caco-2 cell homogenate stability assay. The radioactivity of the [^14C]-D-mannitol samples was quantified by liquid scintillation counting (Liquid Scintillation Systems, BECKMAN LS3801, USA), and the apparent permeability (P app) for each compound was calculated using the following equation: [drawing 1] dC/dt steady-state rate of change in the chemical concentration (M/s) or radiochemical concentration (dpm mL/s) in the receiver chamber
(§4) Vr volume of the receiver chamber (mL)
(§5) A surface area of the cell monolayers
(§6) C0 initial concentration in the donor chamber (M or dpm/mL)

[4] = tested on: Caco-2 cell monolayers; experiment: Caco-2 cell permeability assay; assay type: in vitro ADME, human; conditions: for increase in permeability (P app) compared to peptide 1: Caco-2 cell monolayers, vs 1 in the same experiment; for P app (×10^−7, cm/s): across Caco-2 cell monolayers, mean ± SEM
Experimental: as §1, §2, §3, §4, §5, §6

[5] = target: T1, MOP receptor (Homo sapiens, UniProt P35372); experiment: SH-SY5Y receptor binding assay ([3H]DAMGO displacement from whole cells); conditions: DPDPE 1 µM, read-out: K iμ
T1 construct: SH-SY5Y cells, which endogenously expresses MOP and δ-opioid (DOP) receptors; host or cells: SH-SY5Y human neuroblastoma cells
Experimental: A suspension of SH-SY5Ycells (10^5 cells per well) was seeded into 24-well plates and incubated overnight. The cells were washed with PBS and pre-incubated with 300 µL binding buffer (50 mM Tris buffer, pH 7.4, 2% BSA). A mixture of [^3H]-DAMGO (100 µL, 15 nM), DPDPE (100 µL, 1 µM) and 100 µL aliquots of each peptide in a range of concentrations (0.1 nM to 100 µM) was added to each well and the plate was incubated at 37°C. An excess of [^3H]-DAMGO (1 µM) was used to determine non-specific binding and buffer (100 µL) was measured as the blank. After 60 minutes, the cells were washed with PBS and 1 M NaOH (0.5 mL) was used to lyse the cells. The radioactivity of the cell suspension was measured by scintillation counting (Liquid Scintillation Systems, BECKMAN LS3801, USA). Data analysis was performed using the one-site competition binding model (GraphPad Prism™ (v5.0) software).

[6] = target: T1, MOP receptor; experiment: Inhibition of forskolin-stimulated cAMP formation in SH-SY5Y cells; assay type: cell-based
Experimental: SH-SY5Y cells, which express MOP and DOP receptors, were seeded (10^5 cells/mL, 100 µL) in a 96-well plate and incubated overnight to reach 80% confluence. Culture medium supplemented with 30 µM forskolin was used make peptide solution (100 nM) and aliquots (100 µL) of each peptide were added to three wells. After incubation at 37°C for 30 minutes, the culture medium was removed and lysis buffer from a cAMP Biotrak EIA kit (Amersham, Buckinghamshire, UK) was added, followed by an anti-cAMP antibody. After incubation at 4°C for 2 hours, a cAMP peroxidase conjugate was added and the plate incubated for another hour at 4°C. Then, the cell lysate was incubated with a 3,3′5,5′-tetramethylbenzidine (TMB) substrate provided by the Biotrak EIA kit and finally […] sulfuric acid was added. Absorbance of each well was determined using a plate reader at 450 nm and compared with a cAMP standard curve (concentration 0–3.2 pmol). Data was represented as a percentage of the maximum cAMP response to forskolin, shown as a mean (±SEM) of three separate experiments each performed in triplicate (GraphPad Prism™ (v5.0) software).

[7] = tested on: castor oil-induced diarrhea in rats; experiment: Castor oil-induced diarrhea test in rats; assay type: in vivo, rat
Experimental: (§7) • Castor oil-induced diarrhea test in rats The ability of test items to inhibit castor-oil induced diarrhea as an index of constipation was assessed. Prior to the start of experimentation, drug-naive rats weighing 200–250 g were fasted for 16 h with free access to water. Individually caged rats were acclimatized for 1 h without access to food or water prior to drug or vehicle administration. […] Rats were gavaged with 1 mL of castor oil five minutes after test item or vehicle administration. Presence or absence of diarrhea was recorded every hour according to a scoring system based on the weight of feces boli and the feces consistency. Weight was scored from 0 (no feces) to 3 (>3 g of feces) and consistency was scored from 0 (normal-shape feces) to 3 (shapeless feces with large amounts of liquid). When both weight of feces and the feces consistency were scored at ≥2, diarrhea was considered to be present. • Charcoal test The charcoal test was assessed in groups of drug-naive rats to measure gastrointestinal (GI) transit. […] The total length of the small intestine from the pylorus to the ileocaecal junction as well as the most distal point of migration of the charcoal meal was measured. The percentage of the distance which the charcoal meal travelled relative to the total length of the small intestine (GI propulsion) was calculated.

[8] = tested on: gastrointestinal transit of a charcoal meal in rats; experiment: Charcoal test (gastrointestinal transit); assay type: in vivo, rat
Experimental: as §7

[9] = tested on: CCI-rat model of neuropathic pain; experiment: Antinociception in CCI-rat model of neuropathic pain (Von Frey paw withdrawal thresholds); assay type: in vivo; conditions: morphine i.v. at equi-effective dose, CCI-rats, p<0.001 vs vehicle
Description: Chronic constriction injury (CCI) of the sciatic nerve in the rat was used as a model of neuropathic pain and was induced according to the method of Bennett and Xie [21]. Briefly, rats were anesthetized with 3% isoflurane delivered in oxygen. A 7 mm segment of the left common sciatic nerve was exposed at mid-thigh level, proximal to the sciatic trifurcation. […] The surgical incision was closed by suturing the muscles and skin in layers. To prevent infection, topical antibiotic powder was applied to the wound. The day of CCI surgery was regarded as day 0. Rats were inspected daily considering posture of the affected hindpaw, exploring behavior, body weight, water intake, and signs of autotomy until experimentation day, which was 14 days post-surgery.
Paw withdrawal thresholds (PWT's), expressed in grams, were measured using a set of calibrated Von Frey filaments (Touch Test- North Coast, 800-821-9319). Animals were acclimatized for at least 15 min in wire mesh metabolic cages (20×20×17 cm). Von Frey filaments which delivered forces in the range 2–20 g at 2 g intervals were used according to the up-down method [20]. Filaments were applied to the plantar surface of the footpad of the hindpaw so that the filament bent slightly for 3 seconds. […]

[10] = separate experiment [d] with 1 and 3 tested together

T1 sequence (P35372 whole entry): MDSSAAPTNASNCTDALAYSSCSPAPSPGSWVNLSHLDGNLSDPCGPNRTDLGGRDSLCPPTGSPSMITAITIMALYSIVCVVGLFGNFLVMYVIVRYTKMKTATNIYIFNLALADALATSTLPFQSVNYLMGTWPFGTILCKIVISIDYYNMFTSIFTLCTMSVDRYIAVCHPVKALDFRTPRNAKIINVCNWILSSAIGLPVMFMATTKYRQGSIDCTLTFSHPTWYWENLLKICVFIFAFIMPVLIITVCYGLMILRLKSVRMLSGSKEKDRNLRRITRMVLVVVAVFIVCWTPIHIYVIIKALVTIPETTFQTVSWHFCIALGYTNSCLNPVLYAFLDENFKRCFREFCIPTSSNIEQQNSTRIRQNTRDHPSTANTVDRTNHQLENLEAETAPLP

Compound	half-life ([1]; 37°C)	half-life [2]	Papp A→B at 150 min, 200 µM ([3]; LC/MS)	increase in permeability (P app) compared to peptide 1 [4]	P app (×10^−7, cm/s) ([4]; LC/MS)	Ki ([5]; mean ± SEM)	IC50 [6]	Papp A→B at 150 min, 200 µM [3, 10]	further results
CCCCCCCCC(N)C(=O)N[C@@H](Cc1c(C)cc(O)cc1C)C(=O)N1CCC[C@H]1C(=O)N[C@@H](Cc1c[nH]c2ccccc12)C(=O)N[C@@H](Cc1ccccc1)C(N)=O (stereo partly shown) [Compound 4] (H-[ξGly(octyl)][Dmt]PWF-NH2)	96.3 ± 8.3 min	41.4 ± 3.3 min	1.24 ± 0.47 ×10⁻⁶ cm/s	62 fold	12.4 (±4.7) ×10^−7 cm/s	0.5 nM	1.3 ± 0.22 nM	–	increase in Caco-2 cell homogenate stability compared with parent peptide 1 ([1]; vs peptide 1 tested in the same experiment): 34 fold
CCCCCCCCC(N)C(=O)N[C@@H](Cc1ccc(O)cc1)C(=O)N1CCC[C@H]1C(=O)N[C@@H](Cc1c[nH]c2ccccc12)C(=O)N[C@@H](Cc1ccccc1)C(N)=O (stereo partly shown) [Compound 3] (H-[ξGly(octyl)]YPWF-NH2)	–	–	–	~90 fold	–	–	31.4 ± 1.45 nM	9.01 ± 1.22 ×10⁻⁶ cm/s	half-life [1, 10]: 77.4 ± 7.1 min; P app (×10^−7, cm/s) [4, 10]: 90.1 (±12.2) ×10^−7 cm/s; Ki ([5]; separate experiment [d] with 1 and 3, mean ± SEM): 25.7 ± 1.3 nM; inhibition of castor oil-induced diarrhea ([7]; i.v. doses up to 16 µmol/kg, p>0.05): No significant inhibition; GI propulsion (%) ([8]; i.v. 16 µmol/kg, mean (± SEM)): 64.3 (±3.0) %
Cc1cc(O)cc(C)c1C[C@H](N)C(=O)N1CCC[C@H]1C(=O)N[C@@H](Cc1c[nH]c2ccccc12)C(=O)N[C@@H](Cc1ccccc1)C(N)=O [Compound 2]	24.1 ± 3.6 min	4.2 ± 1.5 min	0.25 ± 0.03 ×10⁻⁶ cm/s	–	2.5 (±0.3) ×10^−7 cm/s	0.06 ± 0.01 nM	0.3 ± 0.02 nM	–	–
NC(=O)[C@H](Cc1ccccc1)NC(=O)[C@H](Cc1c[nH]c2ccccc12)NC(=O)[C@@H]1CCCN1C(=O)[C@@H](N)Cc1ccc(O)cc1 [Compound 1, Tyr-Pro-Trp-Phe-NH2, reference compound]	–	–	0.02 ± 0.002 ×10⁻⁶ cm/s	–	0.2 (±0.02) ×10^−7 cm/s	–	–	0.1 ± 0.034 ×10⁻⁶ cm/s	–
CN1CC[C@]23c4c5ccc(O)c4O[C@H]2[C@@H](O)C=C[C@H]3[C@H]1C5 [morphine, reference compound]	–	–	–	–	–	–	–	–	antinociception in the contralateral (uninjured) hindpaw [9]: produced significant antinociceptive activity; inhibition of castor oil-induced diarrhea ([7]; i.v. 2 µmol/kg, p<0.001): inhibited castor oil-induced diarrhea significantly; GI propulsion (%) ([8]; i.v. 2 µmol/kg, mean ± SEM, p<0.001): 29.5±4.6%
